Results taken from US20070009944A1, “Assay for nucleic acid ligase and nucleic acid nuclease” (University of East Anglia, priority 2005, published 2007).
Structures can show the parent of a compound that is named as a salt.

Target: T1, E. coli DNA ligase (LigA) (Escherichia coli, UniProt P15042)
T1 construct: His tag; made in house
Assay: In-well ligation of immobilised nicked DNA hairpins (fluorescence retention, micro-titre plate)
Format: biochemical
Conditions: 15 nM E. coli DNA ligase; ligates 60% of immobilized hairpins without inhibitor; FIG. 8; read-out: 50% inhibition of E. coli DNA ligase activity
Description: Ligation of immobilised nicked hairpins was performed in the streptavidin coated wells of a micro-titre plate (StreptaWell HighBind 96-well plate, opaque, white). After each of the following steps were performed, the entire solution in the well was removed and stored or discarded, as required. Hairpins were immobilised by placing 80 μL of a 5 μM hairpin solution into each well. The hairpin solution was removed after 5 minutes and the wells washed 5 times with 100 μL Wash Buffer (30 mM Tris-HCl, 4 mM MgCl2, pH 8.1), which allowed a stable fluorescence signal to be obtained from the immobilised hairpins. […] Fluorescence was recorded with a FL×800 Microplate Fluorescence Reader (Bio-Tek Instruments Inc). […]
In-well ligation of the nicked DNA hairpins by LigA was reflected by retention of fluorescence after exposure to DNA ligase and denaturation conditions, as shown in FIG. 6. […] The retention of fluorescence after exposure to DNA ligase and denaturation conditions is in contrast to the almost complete loss of fluorescence noted when the experiment was repeated without DNA ligase. […] The efficiency of in-well ligation was calculated in the following manner. The fluorescence retained in control experiments with the nicked hairpin was taken as a measure of background fluorescence intensity. […]

T1 sequence (P15042 whole entry): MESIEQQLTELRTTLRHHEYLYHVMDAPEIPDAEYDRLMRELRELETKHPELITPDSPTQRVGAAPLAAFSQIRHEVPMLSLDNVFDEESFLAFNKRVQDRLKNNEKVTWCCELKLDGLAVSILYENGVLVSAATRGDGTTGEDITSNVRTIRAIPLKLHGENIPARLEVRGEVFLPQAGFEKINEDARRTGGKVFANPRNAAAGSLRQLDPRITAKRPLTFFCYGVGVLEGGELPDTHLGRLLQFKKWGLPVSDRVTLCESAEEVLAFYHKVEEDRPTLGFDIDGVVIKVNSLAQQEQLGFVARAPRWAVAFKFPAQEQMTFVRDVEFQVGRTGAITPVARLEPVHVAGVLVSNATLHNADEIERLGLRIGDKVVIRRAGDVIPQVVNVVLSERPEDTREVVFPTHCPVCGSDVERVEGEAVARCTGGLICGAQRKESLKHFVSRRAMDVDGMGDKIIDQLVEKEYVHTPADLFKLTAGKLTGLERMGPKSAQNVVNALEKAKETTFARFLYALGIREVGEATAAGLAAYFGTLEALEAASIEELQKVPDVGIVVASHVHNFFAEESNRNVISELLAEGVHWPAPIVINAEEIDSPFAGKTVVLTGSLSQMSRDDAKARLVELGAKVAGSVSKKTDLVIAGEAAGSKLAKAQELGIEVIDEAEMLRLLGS

CCN(CC)CCCC(C)Nc1c2ccc(Cl)cc2nc2ccc(OC)cc12 (stereo not shown) [quinacrine, quinacrine dihydrochloride]
IC50: ~20 µM
